Laboratory results as given in PMC11597353, “Synthesis of Novel Gefitinib-Conjugated 1,2,3-Triazole Derivatives and Their Effect of Inducing DNA Damage and Apoptosis in Tumor Cells” (Molecules, 2024).
Where two headings read alike, the source gives them in different places.

Columns and labels:
[1] = system: HT-29; parameters: method as in PMID 31078767; conditions: HT-29, MTT method; cited from earlier work
[2] = system: MCF-7; parameters: method as in PMID 31078767; conditions: MCF-7, MTT method; cited from earlier work
[3] = system: MOLT-4; parameters: method as in PMID 31078767; conditions: MOLT-4, MTT method; cited from earlier work
[4] = system: breast cancer cells (MDA-MB-468); parameters: method as in PMID 31586710; conditions: 2.5 μM; cited from earlier work
[5] = system: HepG2 cells; parameters: method as in PMID 32745759; conditions: read-out: IC50, growth of HepG2 cells; cited from earlier work
[6] = system: VEGFR-2; parameters: method as in PMID 37611529; conditions: cited from earlier work
[7] = system: EGFR T790M; parameters: method as in PMID 37611529; conditions: cited from earlier work
[8] = system: HepG2 cells; parameters: method as in PMID 34237623, PMID 38675717; conditions: read-out: IC50, inhibitory activity against HepG2 cells; cited from earlier work
[9] = system: HepG2 cells; experiment: CCK8 cell viability / IC50 assay on HepG2 cells; conditions: for % Cell Viability (10 μM): 72 h; for IC50: read-out: HepG2, IC50 (μM) 72 h

Row | Compound | melting point [°C] | IC50 [9] [µM] | % Cell Viability (10 μM) [9] [%] | other results
1 | O=C1C=C(NCc2cn(Cc3ccc(C(F)(F)F)cc3)nn2)C(=O)c2ccccc21 [Compound 2] |  |  |  | IC50 [1]: 6.8 µM; IC50 [2]: 10.4 µM; IC50 [3]: 8.4 µM
2 | O=C(C1=Cc2cc3ccccc3n2Cc2cnnn21)c1ccccc1 [Compound 3] |  |  |  | colony formation in breast cancer cells (MDA-MB-468) [4]: completely inhibited
3 | Cc1cc(C)nc(NS(=O)(=O)c2ccc(-n3cc(CCc4nc5ccccc5s4)nn3)cc2)n1 [Compound 4] |  |  |  | IC50 [5]: 1.49 µM
4 | NS(=O)(=O)c1ccc(-n2c(SCC(=O)Nc3cccc4ccccc34)nc3ccc(I)cc3c2=O)cc1 [Compound 7] |  |  |  | IC50 [6]: 0.0523 µM; IC50 [7]: 0.0728 µM
5 | COc1cc(C(=O)c2nc3ccccc3c(=O)[nH]2)cc(OC)c1OC [Compound 8] |  |  |  | IC50 [8]: 1.22 µM
6 | COc1cc2ncnc(Nc3cccc(-c4cn(Cc5ccccc5C#N)nn4)c3)c2cc1OCCCN1CCOCC1 [Compound 11b, 2-((4-(3-((7-methoxy-6-(3-morpholinopropoxy)quinazolin-4-yl)amino)phenyl)-1H-1,2,3-triazol-1-yl)methyl)benzonitrile] | 167 to 168 |  | 59.50 ± 2.74 | 
7 | COc1cc2ncnc(Nc3cccc(-c4cn(Cc5cc(Br)cc(Br)c5)nn4)c3)c2cc1OCCCN1CCOCC1 [Compound 11c, N-(3-(1-(3,5-dibromobenzyl)-1H-1,2,3-triazol-4-yl)phenyl)-7-methoxy-6-(3-morpholinopropoxy)quinazolin-4-amine] |  |  | 37.72 ± 2.38 | 
8 | COc1cc2ncnc(Nc3cccc(-c4cn(Cc5cc(F)ccc5Br)nn4)c3)c2cc1OCCCN1CCOCC1 [Compound 11e, N-(3-(1-(2-bromo-5-fluorobenzyl)-1H-1,2,3-triazol-4-yl)phenyl)-7-methoxy-6-(3-morpholinopropoxy)quinazolin-4-amine] |  | 4.04 ± 0.21 | 7.03 ± 0.16 | 
9 | COc1cc2ncnc(Nc3cccc(-c4cn(Cc5c(F)cccc5Cl)nn4)c3)c2cc1OCCCN1CCOCC1 [Compound 11h, N-(3-(1-(2-chloro-6-fluorobenzyl)-1H-1,2,3-triazol-4-yl)phenyl)-7-methoxy-6-(3-morpholinopropoxy)quinazolin-4-amine] | 177 to 180 | 3.91 ± 0.08 | 6.80 ± 0.14 | 
10 | COc1cc2ncnc(Nc3cccc(-c4cn(Cc5ccccc5[N+](=O)[O-])nn4)c3)c2cc1OCCCN1CCOCC1 [Compound 11i, 7-methoxy-6-(3-morpholinopropoxy)-N-(3-(1-(2-nitrobenzyl)-1H-1,2,3-triazol-4-yl)phenyl)quinazolin-4-amine] |  |  | 70.10 ± 3.40 | 
11 | COc1cc2ncnc(Nc3cccc(-c4cn(Cc5ccc([N+](=O)[O-])cc5)nn4)c3)c2cc1OCCCN1CCOCC1 [Compound 11j, 7-methoxy-6-(3-morpholinopropoxy)-N-(3-(1-(4-nitrobenzyl)-1H-1,2,3-triazol-4-yl)phenyl)quinazolin-4-amine] | 171 to 173 |  | 47.33 ± 2.17 | 
12 | COc1cc2ncnc(Nc3cccc(-c4cn(Cc5ccccc5F)nn4)c3)c2cc1OCCCN1CCOCC1 [Compound 11k, N-(3-(1-(2-fluorobenzyl)-1H-1,2,3-triazol-4-yl)phenyl)-7-methoxy-6-(3-morpholinopropoxy)quinazolin-4-amine] | 184 to 186 | 6.21 ± 0.24 | 14.72 ± 2.29 | 
13 | COc1cc2ncnc(Nc3cccc(-c4cn(Cc5ccc(C(F)(F)F)cc5)nn4)c3)c2cc1OCCCN1CCOCC1 [Compound 11l, 7-methoxy-6-(3-morpholinopropoxy)-N-(3-(1-(4-(trifluoromethyl)benzyl)-1H-1,2,3-triazol-4-yl)phenyl)quinazolin-4-amine] |  | 4.53 ± 0.37 | 5.85 ± 1.15 | 
14 | COc1cc2ncnc(Nc3cccc(-c4cn(Cc5cc(F)ccc5C#N)nn4)c3)c2cc1OCCCN1CCOCC1 [Compound 11r, 4-fluoro-2-((4-(3-((7-methoxy-6-(3-morpholinopropoxy)quinazolin-4-yl)amino)phenyl)-1H-1,2,3-triazol-1-yl)methyl)benzonitrile] | 164 to 166 | 6.68 ± 0.11 | 9.11 ± 1.63 | 
15 | COc1cc2ncnc(Nc3ccc(F)c(Cl)c3)c2cc1OCCCN1CCOCC1 [Gefitinib] |  |  | 31.03 ± 2.42 | 

Further lines, with some results ahead:

Row | melting point [°C] | IC50 [9] [µM] | Compound | % Cell Viability (10 μM) [9] [%] | other results
16 | 177 to 178 | 5.49 ± 0.21 | COc1cc2ncnc(Nc3cccc(-c4cn(Cc5ccc(Br)cc5)nn4)c3)c2cc1OCCCN1CCOCC1 [Compound 11a, N-(3-(1-(4-bromobenzyl)-1H-1,2,3-triazol-4-yl)phenyl)-7-methoxy-6-(3-morpholinopropoxy)quinazolin-4-amine] | 7.07 ± 0.49 | 
17 | 168 to 169 |  | COc1cc2ncnc(Nc3cccc(-c4cn(Cc5ccc(C)cc5)nn4)c3)c2cc1OCCCN1CCOCC1 [Compound 11d, 7-methoxy-N-(3-(1-(4-methylbenzyl)-1H-1,2,3-triazol-4-yl)phenyl)-6-(3-morpholinopropoxy)quinazolin-4-amine] | 36.48 ± 2.89 | 
18 | 169 to 170 | 5.15 ± 0.31 | COc1cc2ncnc(Nc3cccc(-c4cn(Cc5ccc(Br)cc5F)nn4)c3)c2cc1OCCCN1CCOCC1 [Compound 11f, N-(3-(1-(4-bromo-2-fluorobenzyl)-1H-1,2,3-triazol-4-yl)phenyl)-7-methoxy-6-(3-morpholinopropoxy)quinazolin-4-amine] | 5.72 ± 0.40 | 
19 | 179 to 181 | 5.23 ± 0.2 | COc1cc2ncnc(Nc3cccc(-c4cn(Cc5ccc(F)c(Cl)c5)nn4)c3)c2cc1OCCCN1CCOCC1 [Compound 11g, N-(3-(1-(3-chloro-4-fluorobenzyl)-1H-1,2,3-triazol-4-yl)phenyl)-7-methoxy-6-(3-morpholinopropoxy)quinazolin-4-amine] | 6.50 ± 0.88 | 
20 | 164 to 165 | 6.1 ± 0.06 | COc1cc2ncnc(Nc3cccc(-c4cn(Cc5cccc(Cl)c5)nn4)c3)c2cc1OCCCN1CCOCC1 [Compound 11n, N-(3-(1-(3-chlorobenzyl)-1H-1,2,3-triazol-4-yl)phenyl)-7-methoxy-6-(3-morpholinopropoxy)quinazolin-4-amine] | 7.68 ± 0.34 | 
21 | 165 to 167 | 5.14 ± 0.25 | COc1cc2ncnc(Nc3cccc(-c4cn(Cc5ccc(Cl)cc5)nn4)c3)c2cc1OCCCN1CCOCC1 [Compound 11o, N-(3-(1-(4-chlorobenzyl)-1H-1,2,3-triazol-4-yl)phenyl)-7-methoxy-6-(3-morpholinopropoxy)quinazolin-4-amine] | 8.06 ± 0.88 | 
22 | 169 to 171 | 10.1 ± 0.14 | COc1cc2ncnc(Nc3cccc(-c4cn(Cc5ccccc5C)nn4)c3)c2cc1OCCCN1CCOCC1 [Compound 11p, 7-methoxy-N-(3-(1-(2-methylbenzyl)-1H-1,2,3-triazol-4-yl)phenyl)-6-(3-morpholinopropoxy)quinazolin-4-amine] | 17.36 ± 1.24 | 
23 | 172 to 173 | 5.38 ± 0.57 | COc1cc2ncnc(Nc3cccc(-c4cn(Cc5cc(C)cc(C)c5)nn4)c3)c2cc1OCCCN1CCOCC1 [Compound 11q, N-(3-(1-(3,5-dimethylbenzyl)-1H-1,2,3-triazol-4-yl)phenyl)-7-methoxy-6-(3-morpholinopropoxy)quinazolin-4-amine] | 7.14 ± 0.95 | 
24 | 167 to 170 |  | COc1cc(Cn2cc(-c3cccc(Nc4ncnc5cc(OC)c(OCCCN6CCOCC6)cc45)c3)nn2)cc(OC)c1 [Compound 11s, N-(3-(1-(3,5-dimethoxybenzyl)-1H-1,2,3-triazol-4-yl)phenyl)-7-methoxy-6-(3-morpholinopropoxy)quinazolin-4-amine] | 22.89 ± 1.97 | 
